This experiment concerns the target T1, Recombinant human HSD17B13 enzyme (Homo sapiens, UniProt Q7Z5P4).
T1 sequence (Q7Z5P4 20-300): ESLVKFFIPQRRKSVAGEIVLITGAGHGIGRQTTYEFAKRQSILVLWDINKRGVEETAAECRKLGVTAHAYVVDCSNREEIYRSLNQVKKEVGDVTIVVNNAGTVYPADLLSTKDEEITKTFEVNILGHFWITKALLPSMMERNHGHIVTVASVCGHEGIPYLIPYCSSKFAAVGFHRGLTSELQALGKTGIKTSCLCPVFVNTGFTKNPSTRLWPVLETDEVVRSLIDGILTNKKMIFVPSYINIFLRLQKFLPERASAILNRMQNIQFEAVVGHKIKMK
Nature of the experiment: HSD17b13 NAD(P)H-Glo biochemical assay. Particulars: 50 μM estradiol, 1 mM NAD+, 37° C. for 3 hours; read-out: HSD17β13 IC50. As for the experimental part: Example B-1: HSD17b13 NAD (P) H-Glo Biochemical Assay
Recombinant human HSD17B13 enzyme. Substrate: estradiol (Sigma β-Estradiol E8875), 100 mM in DMSO. Cofactor: NAD+ Grade I free acid (Sigma 10127965001), 20 mM in H2O. Assay buffer final concentration: 20 mM Tris pH7.4 with 0.002% Tween-20 and 0.02% BSA. Assay performed in 384 well solid bottom plate (Corning 3570). Enzymatic activity detected by NAD (P) H-Glo™ Detection System (Promega G9062).
Inhibitor compounds were serially diluted in DMSO and then further diluted in assay buffer to a 10× concentration consisting of 1% DMSO.
HSD17b13 enzyme was diluted in 1× assay buffer to the desired enzyme concentration based on the specific activity of the enzyme lot. 20 μL of diluted enzyme was added to each well along with 2.5 μL of 10× inhibitor solution. Assay plate was incubated at RT for 20 minutes, and then 2.5 μL of a 10× substrate/cofactor mix was added to each well for a final concentration of 50 μM estradiol and 1 mM NAD+. Assay plate was incubated at 37° C. for 3 hours. NAD (P) H-Glo™ Detection System reagents were prepared according to manufacturer's specifications, and 25 μL was added to each well. After incubating for 1 hour at RT, luminescence was measured.

For 10 compounds, IC50 results are on record in patent US20240368127A1, “HSD17B13 INHIBITORS AND USES THEREOF” (FL2022-001, Inc., priority 2021, published 2024).

The term IC50 denotes the concentration that inhibits the measured activity by half.

Molecules are shown by their SMILES.

On to `CN(C)C(=O)N1CCN(c2ncc3c(-c4cc(C(F)(F)F)c(F)c(O)c4F)nn(C)c3n2)C[C@@H]1Cc1ccccc1` [Compound 6.07, (S)-2-Benzyl-4-(3-(2,4-difluoro-3-hydroxy-5-(trifluoromethyl)phenyl)-1-methyl-1H-pyrazolo[3,4-d]pyrimidin-6-yl)-N,N-dimethylpiperazine-1-carboxamide], for which the IC50 is 0.1 to 1 µM. The value for `Cc1nn(-c2cc(C(F)(F)F)c(Cl)c(O)c2F)c2cnc(N3CCN(S(C)(=O)=O)C[C@H]3Cc3ccccc3)cc12` [Compound 2.11, (R)-3-(5-(2-Benzyl-4-(methylsulfonyl)piperazin-1-yl)-3-methyl-1H-pyrazolo[3,4-c]pyridin-1-yl)-6-chloro-2-fluoro-5-(trifluoromethyl)phenol] was at most 0.1 µM. In the case of `CS(=O)(=O)N1CCN(c2ncc3c(cnn3-c3cc(C(F)(F)F)c(F)c(O)c3F)n2)[C@H](Cc2ccccc2)C1` [Compound 2.09, (R)-3-(5-(2-Benzyl-4-(methylsulfonyl)piperazin-1-yl)-1H-pyrazolo[4,3-d]pyrimidin-1-yl)-2,6-difluoro-5-(trifluoromethyl)phenol], the half-maximal inhibitory concentration (IC50) is at most 0.1 µM.

Take `Cc1nn(-c2cc(C(F)(F)F)c(F)c(O)c2F)c2cnc(N3CCN(S(C)(=O)=O)C[C@@H]3Cc3ccccc3)cc12` [Compound 2.03, (S)-3-(5-(2-Benzyl-4-(methylsulfonyl)piperazin-1-yl)-3-methyl-1H-pyrazolo[3,4-c]pyridin-1-yl)-2,6-difluoro-5-(trifluoromethyl)phenol]: the IC50 is 0.1 to 1 µM. As to `Cn1nc(-c2cc(C(F)(F)F)c(F)c(O)c2F)c2cnc(N3CCOC[C@H]3C(C)(C)O)nc21` [Compound 15.13, (S)-2,6-Difluoro-3-(6-(3-(2-hydroxypropan-2-yl)morpholino)-1-methyl-1H-pyrazolo[3,4-d]pyrimidin-3-yl)-5-(trifluoromethyl)phenol], the IC50 is at most 0.1 µM. Take `Cn1nc(-c2cc(C(F)(F)F)c(F)c(O)c2F)c2cnc(N3CCOC[C@H]3C(=O)N3CCCCC3)nc21` [Compound 11.26, (S)-(4-(3-(2,4-Difluoro-3-hydroxy-5-(trifluoromethyl)phenyl)-1-methyl-1H-pyrazolo[3,4-d]pyrimidin-6-yl)morpholin-3-yl)(piperidin-1-yl)methanone]: the half-maximal inhibitory concentration (IC50) is at most 0.1 µM.

As for `Cn1nc(-c2cc(C(F)(F)F)c(F)c(O)c2F)c2cnc(N3CCN(C(=O)C(F)(F)F)CC3CC3CC3)nc21` (stereo not shown) [Compound 11.14, 1-(3-(Cyclopropylmethyl)-4-(3-(2,4-difluoro-3-hydroxy-5-(trifluoromethyl)phenyl)-1-methyl-1H-pyrazolo[3,4-d]pyrimidin-6-yl)piperazin-1-yl)-2,2,2-trifluoroethan-1-one], the IC50 was at most 0.1 µM. In the case of `CCn1nc(-c2cc(C(F)(F)F)c(F)c(O)c2F)c2cnc(N3CCN(S(C)(=O)=O)C[C@H]3Cc3ccccc3)nc21` [Compound 11.22, (R)-3-(6-(2-Benzyl-4-(methylsulfonyl)piperazin-1-yl)-1-ethyl-1H-pyrazolo[3,4-d]pyrimidin-3-yl)-2,6-difluoro-5-(trifluoromethyl)phenol] it was at most 0.1 µM; in that of `Cc1nn(-c2cc(C(F)(F)F)c(Cl)c(O)c2F)c2cnc(N3CCN(S(C)(=O)=O)C[C@H]3Cc3ccccc3)nc12` [Compound 2.21, (R)-3-(5-(2-Benzyl-4-(methylsulfonyl)piperazin-1-yl)-3-methyl-1H-pyrazolo[4,3-d]pyrimidin-1-yl)-6-chloro-2-fluoro-5-(trifluoromethyl)phenol], at most 0.1 µM; in that of `Cn1nc(-c2cc(C(F)(F)F)c(F)c(O)c2F)c2cnc(N3CCN(S(C)(=O)=O)CC3CC3CCC3)nc21` (stereo not shown) [Compound 11.27, 3-(6-(2-(Cyclobutylmethyl)-4-(methylsulfonyl)piperazin-1-yl)-1-methyl-1H-pyrazolo[3,4-d]pyrimidin-3-yl)-2,6-difluoro-5-(trifluoromethyl)phenol], at most 0.1 µM.
